From US20230286929A1, “AROMATIC BRIDGED RING AMIDE DERIVATIVES FOR THE TREATMENT AND PROPHYLAXIS OF HEPATITIS B VIRUS INFECTION” (Hoffmann-La Roche Inc., priority 2020, published 2023)

What was measured:
Format in all cases: cell-based
HBsAg = assay: PHH HBV natural infection assay, HBsAg (alphalisa); conditions: Hepatitis B virus, Hepatocyte, 72 h, read-out: HBsAg IC50
Description: (§1) Detailed procedures regarding primary human hepatocyte (PHH) HBV natural infection assay are described as below. One tube of frozen PHH (10 million cells) is thawed in 37° C. water bath and then transferred to 20 mL of PHH thawing medium (Sigma, InVitroGRO HT Medium, Cat. S03319) with gently mixing. The cells were then centrifuged at […] for 5 min, the supernatant was discarded and the tube was refilled with 25 mL of PHH plating medium (Sigma, InVitroGRO CP Medium, Cat. 503317). The tube was shaken very gently to re-suspend all cells. 50 μl of cells were transferred to each well 384-well collagen I coated plate with appropriate liquid handling equipment, e.g. Integra VIAFLO384 or Agilent Bravo. The cells were then cultured for 24 hours in a cell incubator. For HBV infection, after PHH attachment on the culture plate, the plating medium was removed and replenished with PHH culture medium containing HBV virus. The PHH culture medium was prepared with Dulbecco's Modified Eagle Medium (DMEM)/F12 (1:1 in volume ratio) containing 10% fetal bovine serum (Gibco, Cat. 10099141), […] (Gibco, Cat. PHG03I1L), 20 ng/mL dexamethasone (Sigma, Cat. D4902-100 mg), 250 ng/mL human recombinant insulin (Gibco, Cat. 41400045) and 100 U/mL penicillin. HBV virus at 200 genome equivalent (GE) per cell with 4% PEG8000 (Sigma, Cat. P1458) containing culture medium were added to the PHH culture medium for infection. The cells were then cultured for 24 hours in cell incubator. Then the cell culture supernatant was removed. The HBV-infected PHH were cultured with sandwich culture method with PHH culture medium containing 1% DMSO and 0.25 mg/mL matrix gel for 72 hours. The supernatant was then refreshed with PHH culture medium containing different concentrations of testing compounds for two times with 72-hour interval. At the end of treatment, the supernatant was collected for viral markers measurements, including HBsAg, HBeAg, HBV DNA and cytotoxicity. HBsAg and HBeAg were detected using alphalisa method using their specific antibodies. For HBV DNA detection, HBV DNA Quantitative Fluorescence Diagnostic Kit (Sansure Biotech Inc.) was used following the manufacture's protocol. Cytotoxicity was determined using Cell Counting Kit-8 (CCK8, Dojindo Molecular Technologies, Inc.).
(§2) The compounds of the present invention were tested for their capacity to inhibit HBsAg and HBeAg as described herein.

HBeAg = assay: PHH HBV natural infection assay, HBeAg (alphalisa); conditions: Hepatitis B virus, Hepatocyte, 72 h, read-out: HbeAg IC50
Description: as §1, §2

[1] = Cytotoxicity in PHH natural infection assay (Cell Counting Kit-8); conditions: HBV-infected primary human hepatocytes, CCK8
Description: as §1

SMILES	IC50 (HBsAg) [µM]	IC50 (HBeAg) [µM]	CC50 at 144 h [1] [µM]
N=S(=O)(c1ccc(C(=O)NC23CC(c4nc5cc(Cl)ccc5o4)(C2)C3)o1)C1CC1 (stereo not drawn) [Example 11, N-[3-(5-chloro-1,3-benzoxazol-2-yl)-1-bicyclo[1.1.1]pentanyl]-5-(cyclopropylsulfonimidoyl)furan-2-carboxamide]	0.823	0.594	> 100
CS(=N)(=O)c1ccc(C(=O)NC23CC(c4nc5cc(Cl)ccc5o4)(C2)C3)o1 (stereo not drawn) [Example 12, N-[3-(5-chloro-1,3-benzoxazol-2-yl)-1-bicyclo[1.1.1]pentanyl]-5-(methylsulfonimidoyl)furan-2-carboxamide]	1.52	0.891	> 100
C[S@@](=N)(=O)c1ccc(C(=O)NC23CC(c4nc5cc(Cl)ccc5o4)(C2)C3)o1 [Example 12-a, N-[3-(5-chloro-1,3-benzoxazol-2-yl)-1-bicyclo[1.1.1]pentanyl]-5-[(R)-methylsulfonimidoyl]furan-2-carboxamide]	2.23	1.3	> 100
C[S@](=N)(=O)c1ccc(C(=O)NC23CC(c4nc5cc(Cl)ccc5o4)(C2)C3)o1 [Example 12-b, N-[3-(5-chloro-1,3-benzoxazol-2-yl)-1-bicyclo[1.1.1]pentanyl]-5-[(S)-methylsulfonimidoyl]furan-2-carboxamide]	2.19	1.01	> 100
N=S(=O)(CC1CC1)c1ccc(C(=O)NC23CC(c4nc5cc(Cl)ccc5o4)(C2)C3)o1 (stereo not drawn) [Example 13, N-[3-(5-chloro-1,3-benzoxazol-2-yl)-1-bicyclo[1.1.1]pentanyl]-5-(cyclopropylmethylsulfonimidoyl)furan-2-carboxamide]	0.95	0.995	> 100
O=C(NC12CC(c3nc4cc(Cl)ccc4o3)(C1)C2)c1ccc(S(=O)(=O)CC2COC2)o1 [Example 14, N-[3-(5-chloro-1,3-benzoxazol-2-yl)-1-bicyclo[1.1.1]pentanyl]-5-(oxetan-3-ylmethylsulfonyl)furan-2-carboxamide]	5.18	3.56	95.7
N=S(=O)(CC1COC1)c1ccc(C(=O)NC23CC(c4nc5cc(Cl)ccc5o4)(C2)C3)o1 (stereo not drawn) [Example 15, N-[3-(5-chloro-1,3-benzoxazol-2-yl)-1-bicyclo[1.1.1]pentanyl]-5-(oxetan-3-ylmethylsulfonimidoyl)furan-2-carboxamide]	4.76	3.31	> 100
CS(=O)(=O)Cc1ccc(C(=O)NC23CC(c4nc5cc(Cl)ccc5o4)(C2)C3)o1 [Example 16, N-[3-(5-chloro-1,3-benzoxazol-2-yl)-1-bicyclo[1.1.1]pentanyl]-5-(methylsulfonylmethyl)furan-2-carboxamide]	0.66	0.575	> 100
CS(=N)(=O)Cc1ccc(C(=O)NC23CC(c4nc5cc(Cl)ccc5o4)(C2)C3)o1 (stereo not drawn) [Example 17, N-[3-(5-chloro-1,3-benzoxazol-2-yl)-1-bicyclo[1.1.1]pentanyl]-5-[(methylsulfonimidoyl)methyl]furan-2-carboxamide]	3.25	2.19	> 100
NS(=O)(=O)Cc1ccc(C(=O)NC23CC(c4nc5cc(Cl)ccc5o4)(C2)C3)o1 [Example 18, N-[3-(5-chloro-1,3-benzoxazol-2-yl)-1-bicyclo[1.1.1]pentanyl]-5-(sulfamoylmethyl)furan-2-carboxamide]	4.96	3.7	> 100
O=C(NC12CC(c3nc4cc(Cl)ccc4o3)(C1)C2)c1cccc(Br)c1 [Example 19, 3-bromo-N-[3-(5-chloro-1,3-benzoxazol-2-yl)-1-bicyclo[1.1.1]pentanyl]benzamide]	2.61	3.23	> 100
O=C(NC12CC(c3nc4cc(Cl)ccc4o3)(C1)C2)c1ccc(Br)cc1 [Example 20, 4-bromo-N-[3-(5-chloro-1,3-benzoxazol-2-yl)-1-bicyclo[1.1.1]pentanyl]benzamide]	4.28	7.21	> 100
CSc1cccc(C(=O)NC23CC(c4nc5cc(Cl)ccc5o4)(C2)C3)c1 [Example 21, N-[3-(5-chloro-1,3-benzoxazol-2-yl)-1-bicyclo[1.1.1]pentanyl]-3-methylsulfanyl-benzamide]	2.6	1.87	> 100
CS(=O)(=O)c1cccc(C(=O)NC23CC(c4nc5cc(Cl)ccc5o4)(C2)C3)c1 [Example 22, N-[3-(5-chloro-1,3-benzoxazol-2-yl)-1-bicyclo[1.1.1]pentanyl]-3-methylsulfonyl-benzamide]	3	2.33	> 100
O=C(NC12CC(c3nc4cc(Cl)ccc4o3)(C1)C2)c1ccnc(C(F)(F)F)c1 [Example 23, N-[3-(5-chloro-1,3-benzoxazol-2-yl)-1-bicyclo[1.1.1]pentanyl]-2-(trifluoromethyl)pyridine-4-carboxamide]	2.05	1.7	96.9
O=C(NC12CC(c3nc4cc(Cl)ccc4o3)(C1)C2)c1cncc(C(F)(F)F)c1 [Example 24, N-[3-(5-chloro-1,3-benzoxazol-2-yl)-1-bicyclo[1.1.1]pentanyl]-5-(trifluoromethyl)pyridine-3-carboxamide]	5.23	8.82	> 100
O=C(NC12CC(c3nc4cc(Cl)ccc4o3)(C1)C2)c1ccc(C(F)(F)F)nc1 [Example 25, N-[3-(5-chloro-1,3-benzoxazol-2-yl)-1-bicyclo[1.1.1]pentanyl]-6-(trifluoromethyl)pyridine-3-carboxamide]	8.71	4.36	> 100
O=C(NC12CC(c3nc4cc(Cl)ccc4o3)(C1)C2)c1cnc(C(F)(F)F)nc1 [Example 26, N-[3-(5-chloro-1,3-benzoxazol-2-yl)-1-bicyclo[1.1.1]pentanyl]-2-(trifluoromethyl)pyrimidine-5-carboxamide]	6.29	3.67	88.2
O=C(NC12CC(c3nc4cc(Cl)ccc4o3)(C1)C2)c1ccc(C(F)(F)F)nn1 [Example 27, N-[3-(5-chloro-1,3-benzoxazol-2-yl)-1-bicyclo[1.1.1]pentanyl]-6-(trifluoromethyl)pyridazine-3-carboxamide]	3.85	1.12	> 100
O=C(NC12CC(c3nc4cc(Cl)ccc4o3)(C1)C2)c1cc(Cl)ccc1Cl [Example 28, 2,5-dichloro-N-[3-(5-chloro-1,3-benzoxazol-2-yl)-1-bicyclo[1.1.1]pentanyl]benzamide]	9.97	10.1	> 100
CS(=N)(=O)c1cccc(C(=O)NC23CC(c4nc5cc(Cl)ccc5o4)(C2)C3)c1 (stereo not drawn) [Example 29, N-[3-(5-chloro-1,3-benzoxazol-2-yl)-1-bicyclo[1.1.1]pentanyl]-3-(methylsulfonimidoyl)benzamide]	3.85	3.06	> 100
O=C(NC12CC(c3nc4cc(Cl)ccc4o3)(C1)C2)C1CC2(C1)CS(=O)(=O)C2 [Example 30, N-[3-(5-chloro-1,3-benzoxazol-2-yl)-1-bicyclo[1.1.1]pentanyl]-2,2-dioxo-2lambda6-thiaspiro[3.3]heptane-6-carboxamide]	9.82	7.77	> 100
